Test results taken from the NIST ThermoML archive (doi:10.1016/j.fluid.2019.06.022).
Values joined by “and” are separate entries in the source; they are usually repeats but may differ in a detail not shown here. Identical values can stand only once. Numbers after ± are expanded uncertainties.

Experiment: xn = mol fraction of the nth substance listed
Conditions: Liquid; for mass density: Bellows volumetry; for viscosity: Falling or rolling sphere viscometry

C=CC [propene] + Cc1ccccc1
Conditions | mass density, x1 = 0.0787 | mass density, x1 = 0.3073 | viscosity, x1 = 0.0787 | viscosity, x1 = 0.3073
376.9 K, 3100 kPa | 760.8 ± 18 kg/m3 | – | 0.253 ± 0.01 mPa·s | –
376.9 K, 3200 kPa | 760.8 ± 18 kg/m3 | – | 0.252 ± 0.01 mPa·s | –
376.9 K, 3900 kPa | 762.5 ± 18 kg/m3 | – | 0.26 ± 0.011 mPa·s | –
376.9 K, 8400 kPa | 767 ± 18 kg/m3 | – | 0.264 ± 0.011 mPa·s | –
376.9 K, 8500 kPa | 767 ± 18 kg/m3 | – | 0.267 ± 0.011 mPa·s | –
376.9 K, 8600 kPa | 767 ± 18 kg/m3 | – | 0.267 ± 0.011 mPa·s | –
376.9 K, 8700 kPa | 767.3 ± 18 kg/m3 | – | 0.269 ± 0.011 mPa·s | –
376.9 K, 14300 kPa | 774.1 ± 19 kg/m3 | – | 0.282 ± 0.012 mPa·s | –
376.9 K, 14600 kPa | 774.1 ± 19 kg/m3 | – | 0.283 ± 0.012 mPa·s | –
376.9 K, 26800 kPa | 786.3 ± 19 kg/m3 | – | 0.314 ± 0.013 mPa·s | –
376.9 K, 27000 kPa | 786.3 ± 19 kg/m3 | – | 0.312 ± 0.013 mPa·s | –
376.9 K, 27200 kPa | 786.6 ± 19 kg/m3 | – | 0.312 ± 0.013 mPa·s | –
376.9 K, 27400 kPa | 786.6 ± 19 kg/m3 | – | 0.317 ± 0.013 mPa·s and 0.312 ± 0.013 mPa·s | –
376.9 K, 27600 kPa | 786.6 ± 19 kg/m3 | – | 0.317 ± 0.013 mPa·s | –
376.9 K, 41000 kPa | 799.3 ± 19 kg/m3 and 798.4 ± 19 kg/m3 | – | 0.352 ± 0.014 mPa·s and 0.349 ± 0.014 mPa·s | –
376.9 K, 41200 kPa | 798.4 ± 19 kg/m3 and 799.3 ± 19 kg/m3 | – | 0.345 ± 0.014 mPa·s and 0.353 ± 0.014 mPa·s | –
376.9 K, 55500 kPa | 810.5 ± 20 kg/m3 | – | 0.376 ± 0.015 mPa·s | –
376.9 K, 55800 kPa | 810.5 ± 20 kg/m3 | – | 0.386 ± 0.016 mPa·s | –
376.9 K, 68600 kPa | 819.9 ± 20 kg/m3 | – | 0.419 ± 0.017 mPa·s | –
376.9 K, 68900 kPa | 819.9 ± 20 kg/m3 | – | 0.418 ± 0.017 mPa·s | –
440.5 K, 3600 kPa | – | 599.7 ± 14 kg/m3 | – | 0.12 ± 0.005 mPa·s and 0.121 ± 0.005 mPa·s
440.5 K, 7500 kPa | – | 612.2 ± 15 kg/m3 | – | 0.129 ± 0.005 mPa·s
440.5 K, 7600 kPa | – | 612.2 ± 15 kg/m3 | – | 0.129 ± 0.005 mPa·s
440.5 K, 20300 kPa | – | 642.2 ± 15 kg/m3 | – | 0.15 ± 0.006 mPa·s
440.5 K, 37200 kPa | – | 669.5 ± 16 kg/m3 | – | 0.176 ± 0.007 mPa·s and 0.177 ± 0.007 mPa·s
440.5 K, 37400 kPa | – | 669.5 ± 16 kg/m3 | – | 0.174 ± 0.007 mPa·s
440.5 K, 37500 kPa | – | 669.5 ± 16 kg/m3 | – | 0.178 ± 0.007 mPa·s
440.5 K, 50100 kPa | – | 683.9 ± 16 kg/m3 | – | 0.195 ± 0.008 mPa·s
440.5 K, 50200 kPa | – | 683.8 ± 16 kg/m3 | – | 0.193 ± 0.008 mPa·s
440.5 K, 68600 kPa | – | 703.5 ± 17 kg/m3 | – | 0.221 ± 0.009 mPa·s
440.5 K, 68700 kPa | – | 703.5 ± 17 kg/m3 | – | 0.222 ± 0.009 mPa·s
443 K, 3200 kPa | 691.9 ± 17 kg/m3 | – | 0.152 ± 0.006 mPa·s | –
443 K, 3300 kPa | 691.6 ± 17 kg/m3 | – | 0.151 ± 0.006 mPa·s | –
443 K, 10500 kPa | 706.3 ± 17 kg/m3 | – | 0.17 ± 0.007 mPa·s and 0.166 ± 0.007 mPa·s | –
443 K, 15100 kPa | 714.5 ± 17 kg/m3 | – | 0.178 ± 0.007 mPa·s | –
443 K, 15300 kPa | 714.5 ± 17 kg/m3 | – | 0.178 ± 0.007 mPa·s | –
443 K, 27100 kPa | 732.1 ± 18 kg/m3 | – | 0.201 ± 0.008 mPa·s | –
443 K, 27200 kPa | 732.1 ± 18 kg/m3 | – | 0.2 ± 0.008 mPa·s and 0.201 ± 0.008 mPa·s | –
443 K, 27300 kPa | 731.8 ± 18 kg/m3 | – | 0.201 ± 0.008 mPa·s | –
443 K, 37600 kPa | 745.3 ± 18 kg/m3 | – | 0.221 ± 0.009 mPa·s | –
443 K, 37800 kPa | 745.3 ± 18 kg/m3 | – | 0.218 ± 0.009 mPa·s | –
443 K, 47900 kPa | 756.2 ± 18 kg/m3 | – | 0.243 ± 0.01 mPa·s and 0.244 ± 0.01 mPa·s | –
443 K, 64800 kPa | 772.1 ± 18 kg/m3 | – | 0.271 ± 0.011 mPa·s | –
443 K, 65000 kPa | 772.4 ± 18 kg/m3 | – | 0.271 ± 0.011 mPa·s | –
529.2 K, 35300 kPa | – | 593.8 ± 14 kg/m3 | – | 0.119 ± 0.005 mPa·s and 0.12 ± 0.005 mPa·s
529.2 K, 49000 kPa | – | 619 ± 15 kg/m3 and 619.1 ± 15 kg/m3 | – | 0.132 ± 0.005 mPa·s and 0.135 ± 0.006 mPa·s
529.2 K, 68500 kPa | – | 647.6 ± 16 kg/m3 | – | 0.156 ± 0.006 mPa·s
529.2 K, 68600 kPa | – | 647.5 ± 16 kg/m3 | – | 0.153 ± 0.006 mPa·s
531.1 K, 7200 kPa | 599.1 ± 14 kg/m3 | – | 0.091 ± 0.004 mPa·s | –
531.1 K, 19200 kPa | 641.3 ± 15 kg/m3 | – | 0.114 ± 0.005 mPa·s | –
531.1 K, 19400 kPa | 641.1 ± 15 kg/m3 | – | 0.113 ± 0.005 mPa·s | –
531.1 K, 31900 kPa | 669.1 ± 16 kg/m3 and 669.7 ± 16 kg/m3 and 669.3 ± 16 kg/m3 | – | 0.133 ± 0.005 mPa·s and 0.134 ± 0.005 mPa·s | –
531.1 K, 32000 kPa | 670.2 ± 16 kg/m3 | – | 0.133 ± 0.006 mPa·s | –
531.1 K, 32100 kPa | 670 ± 16 kg/m3 | – | 0.131 ± 0.005 mPa·s | –
531.1 K, 32200 kPa | 670.2 ± 16 kg/m3 | – | 0.136 ± 0.006 mPa·s | –
531.1 K, 41400 kPa | 685 ± 16 kg/m3 | – | 0.148 ± 0.006 mPa·s | –
531.1 K, 41500 kPa | 685 ± 16 kg/m3 and 685.2 ± 16 kg/m3 | – | 0.145 ± 0.006 mPa·s and 0.148 ± 0.006 mPa·s | –
531.1 K, 41600 kPa | 685.2 ± 16 kg/m3 | – | 0.146 ± 0.006 mPa·s | –
531.1 K, 53300 kPa | 702.3 ± 17 kg/m3 and 701.5 ± 17 kg/m3 | – | 0.165 ± 0.007 mPa·s | –
531.1 K, 53400 kPa | 701.7 ± 17 kg/m3 and 702.5 ± 17 kg/m3 | – | 0.164 ± 0.007 mPa·s and 0.165 ± 0.007 mPa·s | –
531.1 K, 67100 kPa | 718.1 ± 17 kg/m3 | – | 0.18 ± 0.007 mPa·s | –
531.1 K, 67200 kPa | 718.6 ± 17 kg/m3 | – | 0.179 ± 0.007 mPa·s | –
